Assay results reported in patent publication US20170137410A1, “FUSED CYCLOALKYL-PYRIMIDINE COMPOUNDS AND USES THEREOF” (Medivation Technologies, Inc., priority 2014, published 2017).
pIC50: −log10 of the molar value.

Each compound was assayed against ABL1 (Homo sapiens, UniProt P00519) (assay: HotSpot kinase assay against ABL1). Settings: HotSpot 33P assay, ATP 10 μM-30 μM.
Chain of ABL1 (P00519 whole entry): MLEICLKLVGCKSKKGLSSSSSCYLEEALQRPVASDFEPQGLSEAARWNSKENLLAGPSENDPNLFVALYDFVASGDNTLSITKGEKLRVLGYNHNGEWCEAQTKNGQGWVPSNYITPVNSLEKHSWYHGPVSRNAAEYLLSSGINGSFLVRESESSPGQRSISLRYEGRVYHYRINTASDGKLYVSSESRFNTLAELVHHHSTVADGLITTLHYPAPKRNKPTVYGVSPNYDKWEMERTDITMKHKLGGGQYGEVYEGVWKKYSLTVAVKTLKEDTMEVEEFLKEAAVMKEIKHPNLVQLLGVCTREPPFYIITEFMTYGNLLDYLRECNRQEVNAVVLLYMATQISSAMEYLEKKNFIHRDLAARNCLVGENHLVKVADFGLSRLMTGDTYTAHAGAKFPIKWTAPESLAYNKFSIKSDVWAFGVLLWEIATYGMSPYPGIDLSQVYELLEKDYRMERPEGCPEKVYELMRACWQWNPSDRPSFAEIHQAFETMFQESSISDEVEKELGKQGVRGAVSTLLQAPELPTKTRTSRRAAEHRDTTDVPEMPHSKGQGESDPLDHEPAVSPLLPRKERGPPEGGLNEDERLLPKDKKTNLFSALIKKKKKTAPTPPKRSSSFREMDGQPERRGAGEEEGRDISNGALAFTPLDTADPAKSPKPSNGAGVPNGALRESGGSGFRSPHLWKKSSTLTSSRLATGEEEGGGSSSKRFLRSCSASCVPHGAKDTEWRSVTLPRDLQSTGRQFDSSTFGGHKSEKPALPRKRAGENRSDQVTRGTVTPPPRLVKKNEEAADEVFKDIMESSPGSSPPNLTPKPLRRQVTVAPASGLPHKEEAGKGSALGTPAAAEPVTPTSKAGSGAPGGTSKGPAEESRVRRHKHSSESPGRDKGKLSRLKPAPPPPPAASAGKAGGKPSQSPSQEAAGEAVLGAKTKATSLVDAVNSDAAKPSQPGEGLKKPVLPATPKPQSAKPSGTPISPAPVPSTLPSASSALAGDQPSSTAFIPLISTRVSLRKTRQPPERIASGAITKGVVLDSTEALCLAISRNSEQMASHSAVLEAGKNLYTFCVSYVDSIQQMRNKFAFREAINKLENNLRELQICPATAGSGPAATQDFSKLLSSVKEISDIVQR
Format: biochemical
Procedure: The screening was performed using the “HotSpot” assay platform. The assay measures the conversion of a peptide substrate to ^33P-labelled phosphorylated product. Briefly, specific kinase/substrate pairs along with required cofactors were prepared in reaction buffer. Specifically, the substrate was prepared in reaction buffer (20 mM Hepes, pH 7.5; 10 mM MgCl2; 1 mM EGTA; 0.02% Brij35; 0.02 mg/mL BSA; 0.1 mM Na3VO4; 2 mM DTT; 1% DMSO), followed by delivery of any required cofactor to the resulting substrate solution. The corresponding kinase was delivered into the substrate solution and the reaction mixture was mixed gently. Compound was delivered into the reaction mixture, followed 15-20 minutes later by addition of a mixture of ATP (Sigma, St. Louis Mo.) and ^33P ATP (specific activity 0.01 μCi/μL final; Perkin Elmer, Waltham, Mass.) to a final concentration of 10 μM-30 μM to initiate the reaction. Reactions were carried out at RT for 120 min, followed by spotting of the reactions onto P81 ion exchange filter paper (Whatman #3698-915; Whatman Inc., Piscataway, N.J.). Unbound phosphate was removed by extensive washing of filters in 0.75% phosphoric acid. […] The percent of enzyme inhibition was calculated based on the percent of remaining kinase activity. IC50 values and curve fits were obtained using Prism (GraphPad Software).
CC(C)c1cc(Nc2nc(N3CCC[C@H]3C(=O)N(C)c3nccs3)nc3c2CCC3)n[nH]1 [68b, (S)-1-(4-((5-isopropyl-1H-pyrazol-3-yl)amino)-6,7-dihydro-5H-cyclopenta[d]pyrimidin-2-yl)-N-methyl-N-(thiazol-2-yl)pyrrolidine-2-carboxamide] showed a pIC50 of 6.50. Compound CC(C)(C)c1cc(Nc2nc(N3CCC[C@@H]3C(=O)N3CCC(F)(F)CC3)nc3c2CCC3)n[nH]1 [142a, (R)-(1-(4-((5-(tert-butyl)-1H-pyrazol-3-yl)amino)-6,7-dihydro-5H-cyclopenta[d]pyrimidin-2-yl)pyrrolidin-2-yl)(4,4-difluoropiperidin-1-yl)methanone] has a pIC50 of under 6.00. In the case of CC(C)(C)c1cc(Nc2nc(N3CCC[C@H]3C(=O)N3CCC(F)(F)CC3)nc3c2CCC3)n[nH]1 [142b, (S)-(1-(4-((5-(tert-butyl)-1H-pyrazol-3-yl)amino)-6,7-dihydro-5H-cyclopenta[d]pyrimidin-2-yl)pyrrolidin-2-yl)(4,4-difluoropiperidin-1-yl)methanone], the pIC50 was under 6.00. Compound CCC(=O)N1CCN(C(=O)[C@H]2CCCN2c2nc3c(c(Nc4cc(C5CCCC5)[nH]n4)n2)CCC3)CC1 [143a, 1-(4-((4-((5-cyclopentyl-1H-pyrazol-3-yl)amino)-6,7-dihydro-5H-cyclopenta[d]pyrimidin-2-yl)-D-prolyl)piperazin-1-yl)propan-1-one] has a pIC50 of under 6.00. CCC(=O)N1CCN(C(=O)[C@@H]2CCCN2c2nc3c(c(Nc4cc(C5CCCC5)[nH]n4)n2)CCC3)CC1 [143b, (S)-1-(4-((4-((5-cyclopentyl-1H-pyrazol-3-yl)amino)-6,7-dihydro-5H-cyclopenta[d]pyrimidin-2-yl)prolyl)piperazin-1-yl)propan-1-one] gave a pIC50 of under 6.00. For CCN(C(=O)[C@@H]1CCCN1c1nc2c(c(Nc3cc(C(C)(C)C)[nH]n3)n1)CCC2)c1nccs1 [144b, (S)-1-(4-((5-(tert-butyl)-1 H-pyrazol-3-yl)amino)-6,7-dihydro-5H-cyclopenta[d]pyrimidin-2-yl)-N-ethyl-N-(thiazol-2-yl)pyrrolidine-2-carboxamide], the pIC50 was under 6.00.
